No end group written: not given here.
Key:
[1] = system: tissue at sites of injection (liver, prostate, extremity skeletal muscle); experiment: Injection of peptide into liver, prostate and extremity skeletal muscle of rats, histopathology and prostate volume at 72 hours; format: in vivo, Sprague-Dawley male rats; design: key to Histological Changes of Cell Death at 72 Hours: −: Absent; +: Present, Minimal; ++: Present, Moderate; +++: Present, Moderate and Diffuse; ++++: Present, Diffuse and Extensive; conditions: rat; for reduction in prostate volume compared to controls: 100 to 400 μL of 1 mg/mL in saline, sacrificed at 72 hours, average; for Histological Changes of Cell Death at 72 Hours: 72 hours after injection; for histopathological effect on tissue at sites of injection: liver, prostate, muscle, 72 hours
Procedure: After open laparotomy under general anesthesia, 8 normal 3 month old Sprague-Dawley male rats were injected in liver and in prostate, and in extremity skeletal muscle, with peptide NYMAP1385 in saline in quantities of 100 to 400 μL at a concentration of 1 mg/mL delivered from plastic syringes through stainless steel 26 gauge needles.
The individual foci of infiltration were excised, fixed in 10% formalin, embedded in paraffin, and stained and examined by standard histopathological methods. For each animal the entire prostate gland was embedded and sectioned. All stained sections were examined histologically and measured. For each prostate at least 4 histological sections were examined, and for each histological section two cross-sectional diameters (D) at 90° from each other were measured (total of ≧4 measurements per prostate). The mean diameter from these measurements for each prostate was used to estimate volume according to V=4/3*π(D/2)^3 […]
(§1) Histological changes were assessed on the following scale: −Absent • +Present, Minimal • ++Present, Moderate • +++Present, Moderate and Diffuse • ++++Present, Diffuse and Extensive

rat prostate = experiment: Intraprostatic infusion of peptide in rats, histology and prostate volume after 7 days; format: in vivo, Sprague-Dawley rats; design: key to Histological Changes of Cell Death at 7 Days: −: Absent; +: Present, Minimal; ++: Present, Moderate; +++: Present, Moderate and Diffuse; ++++: Present, Diffuse and Extensive; conditions: for histological effect on prostate at sites of injection: rat prostate, 7 days; for Histological Changes of Cell Death at 7 Days / reduction in prostate volume compared to controls: rat; for Histological Changes of Cell Death at 7 Days: 7 days after intraprostatic injection; for reduction in prostate volume compared to controls: intraprostatic, 300 μl of 1 mg/mL in PBS pH 7.4, sacrificed after 7 days, average
Procedure: Seven normal male 300 gram weight Sprague-Dawley rats were given general anesthesia and given peptide NYMAP1385 by intraprostatic infusion. The injections consisted of 300 μl of peptide NYMAP1385 1 mg/mL in PBS pH 7.4. […] Rats were painlessly sacrificed after 7 days. Prostate glands were dissected, fixed in 10% buffered formalin for 24 hours, embedded in paraffin, sectioned, and stained with H & E. For each animal the entire prostate gland was embedded and sectioned. All stained sections were examined histologically. For each animal the entire prostate gland was embedded and sectioned. All stained sections were examined histologically and measured. For each prostate at least 2 histological sections were examined, and for each histological section two cross-sectional diameters (D) at 90° from each other were measured (total of ≧4 measurements per prostate). The mean diameter from these measurements for each prostate was used to estimate volume according to V=4/3*π*(D/2)^3
Eight normal male 300 gram Sprague-Dawley rats were injected in the prostate as in the above Example 2, except they were injected with peptide NYMAP13134. Rats were painlessly sacrificed after 7 days and their prostate glands were examined as in Example 2. For each animal the entire prostate gland was embedded and sectioned. All stained sections were examined histologically and measured. For each prostate at least 2 histological sections were examined, and for each histological section two cross-sectional diameters (D) at 90° from each other were measured (total of ≧4 measurements per prostate). The mean diameter from these measurements for each prostate was used to estimate volume according to V=4/3*π*(D/2)^3
as §1

Sequence	reduction in prostate volume compared to controls [1] [%]	Histological Changes of Cell Death at 72 Hours [1]	histopathological effect on tissue at sites of injection [1]	histological effect on prostate at sites of injection (rat prostate)	Histological Changes of Cell Death at 7 Days (rat prostate)	reduction in prostate volume compared to controls (rat prostate) [%]
FHDLKKHCIK [NYMAP13134]	72.5	+++	cell death and necrosis of tissue at the injection sites	significant cell loss and atrophy in the prostate	++++	75.2
IDLLQGRTRNRC [NYMAP1385]	57.8	++++	variable amounts of apoptosis and necrosis of tissue at the injection sites	necrosis of tissue at the injection sites with loss of glandular epithelium, flattening and atrophy	++	44.8

From patent publication US9243035B2, “Peptides effective in the treatment of conditions requiring the removal or destruction of cells” (NYMOX CORPORATION, priority 2013, dated 2016)
